{"source": "paper PMC10247784", "about": "“Physiological activation of human and mouse bitter taste receptors by bile acids” (Communications Biology, 2023)", "test_system": "mouse Tas2rs", "assay": "Calcium imaging screening of 34 mouse bitter taste receptors", "type": "cell-based", "details": "screening of 34 mouse receptors; listed as CDCA", "experimental": "This set of bile acids was chosen because of their commercial availability in high purities, their diversity within the class of bile acids and their previous detection and quantitation in human blood. Stock solutions were prepared in DMSO. […] Maximal applied concentrations are due to solubility problems or receptor-independent artefacts during measurement at high bile acid concentrations (Table 1, Table 2)[12],[58]. […]\nCells were loaded using the calcium-sensitive fluorescent dye Fluo-4-AM (Abcam, Cambridge, Great Britain) in the presence of 2.5 mM probenecid (Sigma-Aldrich, Steinheim, Germany) the day after transfection[13],[41]. […] For automated agonist application and measurement of fluorescence changes, a FLIPR^TETRA device (Molecular Devices, San José, United States) was used. […]\nMeasured data were negative control corrected by subtracting the signal of the mock-transfected cells and exported to Microsoft Excel using the FLIPR software ScreenWorks 4.2. In Microsoft Excel software, standardization of maximum fluorescence intensities to the basal fluorescence and normalization to the buffer-only control was done to calculate the relative fluorescence changes (ΔF/F). […]", "note": "“Also recorded” adds a separate entry of the source."}
{"smiles": "C[C@H](CCC(=O)O)[C@H]1CC[C@H]2[C@@H]3[C@H](O)C[C@@H]4C[C@H](O)CC[C@]4(C)[C@H]3CC[C@]12C", "note": "[Chenodeoxycholic Acid, chenodeoxycholic acid]", "values": [{"measurement": "Response of mouse Tas2rs", "result": "did not activate any; also recorded: did not obtain any response"}]}
